According to US20080194585A1, “Fungicidal Pyrazine Derivatives” (priority 2005, published 2008):
Like-named read-outs stand apart in the source and are kept apart here.

Experiments:
Plasmopara viticola = assay: Test D: grape downy mildew, spray after inoculation of grape seedlings; type: in vivo; conditions: Plasmopara viticola, 168 h, read-out: Test D disease control rating
Source text: Upon removal, disease ratings were made. […] A dash (-) indicates no test results.

Phytophthora infestans = assay: whole plant or invertebrate; type: in vivo; conditions: Phytophthora infestans, in Solanum lycopersicum, topical, 144 h, read-out: Test F disease control rating
Septoria tritici = assay: Test J: wheat leaf blotch, preventive spray on wheat seedlings; type: in vivo; conditions: Zymoseptoria tritici, 528 h, read-out: Test J disease control rating
Source text: A dash (-) indicates no test results.

fusarium graminearium = assay: Test I: wheat head scab, preventive spray on wheat seedlings; conditions: Fusarium, in Triticum aestivum, topical, 192 h; for pest or weed control at 200 ppm: read-out: Test I disease control rating, 200 ppm
Experimental: (the causal agent of wheat head scab) and incubated in a saturated atmosphere at 20° C. for 72 h, and then moved to a growth chamber at 22° C. for 5 days, after which disease ratings were made.

[1] = test system: Puccinia recondita f. sp. tritici; assay: Test K: wheat leaf rust, preventive spray on wheat seedlings; conditions: Puccinia recondita, in Triticum aestivum, 192 h, read-out: Test K disease control rating
Botrytis cinerea = assay: Test E: tomato botrytis, preventive spray on tomato seedlings; conditions: Botrytis cinerea, in Solanum lycopersicum, topical, 72 h, read-out: Test E disease control rating
Septoria nodorum = assay: Test H: wheat glum blotch, preventive spray on wheat seedlings; conditions: Parastagonospora nodorum, in Triticum aestivum, topical, 168 h
Experimental: (the causal agent of wheat glum blotch) and incubated in a saturated atmosphere at 20° C. for 48 h, and then moved to a growth chamber at 22° C. for 5 days, after which disease ratings were made.

[2] = test system: Erysiphe graminis f. sp. tritici; assay: Test L: wheat powdery mildew, preventive spray on wheat seedlings; conditions: Blumeria graminis, in Triticum aestivum, 168 h
Pythium aphanidermatum = assay: Test A: bluegrass pythium blight, preventive spray on bluegrass seedlings; conditions: Pythium aphanidermatum, 120 h, read-out: Test A disease control rating
Rhizoctonia oryzae = assay: Test G: turf brown patch, preventive spray on creeping bent grass seedlings; conditions: Waitea circinata, in Agrostis stolonifera, topical, 144 h
Experimental: (the causal agent of turf brown patch) and incubated in a saturated atmosphere at 27° C. for 24 h, and then moved to a growth chamber at 27° C. for 5 days, after which disease ratings were made.

[3] = test system: Colletotrichum orbiculare; assay: Test B: cucumber Colletotrichum anthracnose, preventive spray on cucumber seedlings; conditions: Colletotrichum orbiculare, in Cucumis sativus, 144 h
Sclerotinia sclerotiorum = assay: Test C: cucumber white mold, preventive spray on cucumber seedlings; conditions: Sclerotinia sclerotiorum, in Cucumis sativus, 168 h
[4] = read-out: Test H disease control rating, 40 ppm (*)
[5] = read-out: Test L disease control rating, 40 ppm (*)
[6] = read-out: Test G disease control rating, 40 ppm (*)
[7] = read-out: Test B disease control rating, 40 ppm (*)
[8] = 40 ppm (marked *), 100 = 100% disease control, 0 = no control
[9] = read-out: Test I disease control rating, 40 ppm (marked *), 100 = 100% disease control, 0 = no control
[10] = read-out: Test H disease control rating, 40 ppm (marked *), 100 = 100% disease control, 0 = no control
[11] = read-out: Test L disease control rating, 40 ppm (marked *), 100 = 100% disease control, 0 = no control
[12] = read-out: Test G disease control rating, 40 ppm (marked *), 100 = 100% disease control, 0 = no control
[13] = read-out: Test B disease control rating, 40 ppm (marked *), 100 = 100% disease control, 0 = no control
[14] = 100 = 100% disease control, 0 = no control relative to controls

Structure (SMILES)	pest or weed control at 200 ppm (Phytophthora infestans) [%]	pest or weed control at 40 ppm (Septoria tritici; 40 ppm (*)) [%]	melting point [°C]	pest or weed control at 40 ppm [1] [%]	pest or weed control at 40 ppm (Botrytis cinerea) [%]	pest or weed control at 40 ppm (Septoria nodorum; [4]) [%]	pest or weed control at 40 ppm [2, 5] [%]	pest or weed control at 200 ppm (Pythium aphanidermatum) [%]	pest or weed control at 40 ppm (Rhizoctonia oryzae; [6]) [%]	pest or weed control at 40 ppm [3, 7] [%]	pest or weed control at 40 ppm (Phytophthora infestans) [%]	pest or weed control at 40 ppm (Pythium aphanidermatum) [%]	pest or weed control at 40 ppm (Plasmopara viticola; [8]) [%]	pest or weed control at 40 ppm (Septoria tritici; [8]) [%]	pest or weed control at 40 ppm (fusarium graminearium; [9]) [%]	pest or weed control at 40 ppm (Septoria nodorum; [10]) [%]	pest or weed control at 40 ppm [2, 11] [%]	pest or weed control at 40 ppm (Rhizoctonia oryzae; [12]) [%]	pest or weed control at 40 ppm [3, 13] [%]	further results
Cc1nc(-n2cccn2)c(=O)n(CC(C)C)c1-c1c(F)cccc1F [Compound 149, 5-Methyl-6-(2,6-difluorophenyl)-1-(2-methylpropyl)-3-(1H-pyrazol-1-yl)-2(1H)-pyrazinone]	0	100	105 to 106	100	100	98	100	0	99	0	–	–	–	–	–	–	–	–	–	pest or weed control at 200 ppm (Plasmopara viticola): 0%; pest or weed control at 200 ppm (fusarium graminearium): 0%
CC[C@H](C)Cn1c(-c2c(F)cc(F)cc2F)c(Cl)nc(-n2cccn2)c1=O [Compound 155, 5-Chloro-1-[(2S)-2-methylbutyl)-3-(1H-pyrazol-1-yl)-6-(2,4,6-trifluorophenyl)-2(1H)-pyrazinone]	–	100	112 to 113	100	100	100	100	–	100	100	0	0	–	–	–	–	–	–	–	pest or weed control at 40 ppm (Plasmopara viticola; 40 ppm (*)): 47%; pest or weed control at 40 ppm (fusarium graminearium; read-out: Test I disease control rating, 40 ppm (*)): 0%; pest or weed control at 40 ppm (Sclerotinia sclerotiorum; read-out: Test C disease control rating, 40 ppm (*)): 99%
COc1ccc(Cn2c(-c3c(F)cccc3F)c(Cl)nc(-n3cccn3)c2=O)cc1 [Compound 271, 5-Chloro-6-(2,6-difluorophenyl)-1-[(4-methoxyphenyl)methyl]-3-(1H-pyrazol-1-yl)-2(1H)-pyrazinone]	–	–	235 to 236	32	0	–	–	–	–	–	0	0	0	0	0	0	0	0	0	pest or weed control at 40 ppm (Sclerotinia sclerotiorum; read-out: Test C disease control rating, 40 ppm (marked *), 100 = 100% disease control, 0 = no control): 0%
O=c1c(-n2cccn2)nc(Cl)c(-c2c(F)ccc(F)c2F)n1-c1ccccc1 [Compound 357, 5-Chloro-1-phenyl-3-(1H-pyrazol-1-yl)-6-(2,3,6-trifluorophenyl)-2(1H)-pyrazinone]	–	–	250 to 260	99	99	–	–	–	–	–	–	0	0	91	91	98	20	84	83	–
CCC(C)Cn1c(-c2ccc(F)cc2F)c(C)nc(C#N)c1=N (stereo not shown) [Compound 426, 5-(2,4-Difluorophenyl)-3,4-dihydro-3-imino-6-methyl-4-(2-methylbutyl)pyrazinecarbonitrile]	0	–	73 to 77	–	–	–	–	82	–	–	–	–	–	–	–	–	–	–	–	pest or weed control at 200 ppm (Plasmopara viticola; [14]): 0%; pest or weed control at 200 ppm (Septoria tritici; 200 ppm, 100 = 100% disease control, 0 = no control relative to controls): 0%; pest or weed control at 200 ppm (fusarium graminearium; [14]): 0%; pest or weed control at 200 ppm [1]: 0%; pest or weed control at 200 ppm (Botrytis cinerea): 0%; pest or weed control at 200 ppm (Septoria nodorum; read-out: Test H disease control rating, 200 ppm, 100 = 100% disease control, 0 = no control relative to controls): 0%; pest or weed control at 200 ppm ([2]; read-out: Test L disease control rating, 200 ppm, 100 = 100% disease control, 0 = no control relative to controls): 80%; pest or weed control at 200 ppm (Rhizoctonia oryzae; read-out: Test G disease control rating, 200 ppm, 100 = 100% disease control, 0 = no control relative to controls): 0%; pest or weed control at 200 ppm ([3]; read-out: Test B disease control rating, 200 ppm, 100 = 100% disease control, 0 = no control relative to controls): 0%
